Assay results taken from the NIST ThermoML archive (doi:10.1016/j.fluid.2007.07.066).
Numbers after ± are expanded uncertainties.

Test: refractive index (Na D-line) (dimensionless); mn = molality of the nth substance listed, in mol/kg
Conditions: 298.15 K, 101 kPa, Liquid, Standard Abbe refractometry

For O=P([O-])([O-])O.[Na+].[Na+] [disodium hydrogen phosphate] + O, the refractive index (m1 = 0.0049) was 1.3328 ± 0.0004, the refractive index (m1 = 0.0104) was 1.3329 ± 0.0004 and the refractive index (m1 = 0.0154) was 1.3331 ± 0.0004. It also gave a refractive index (m1 = 0.0211) of 1.3333 ± 0.0004, a refractive index (m1 = 0.0413) of 1.334 ± 0.0004 and a refractive index (m1 = 0.0712) of 1.3348 ± 0.0004. For the same compound, the refractive index (m1 = 0.1066) was 1.3357 ± 0.0004, the refractive index (m1 = 0.1437) was 1.3367 ± 0.0004 and the refractive index (m1 = 0.1927) was 1.3379 ± 0.0004. For the same compound, the refractive index (m1 = 0.2475) was 1.3392 ± 0.0004, the refractive index (m1 = 0.3697) was 1.3421 ± 0.0004 and the refractive index (m1 = 0.4438) was 1.3438 ± 0.0004. It also gave a refractive index (m1 = 0.5295) of 1.3458 ± 0.0004, a refractive index (m1 = 0.6125) of 1.3476 ± 0.0004 and a refractive index (m1 = 0.6768) of 1.349 ± 0.0004. It also gave a refractive index (m1 = 0.7479) of 1.3505 ± 0.0004, a refractive index (m1 = 0.8346) of 1.3524 ± 0.0004 and a refractive index (m1 = 0.9695) of 1.3551 ± 0.0004.
